Where no end group is shown, it is not given here.
System: drug-resistant Mycobacterium tuberculosis
Type: cell-based
Conditions: 10 micrograms per ml; seven days at 37° C.; strain resistant to PAS, streptomycin and isoniazid

Substance	inhibition of the growth of Mycobacterium tuberculosis
D-Ala-Gln-octadecyl ester [Peptide 2]	100%
Lys-Ile-Cys-Ile-Arg-Ile-Gln-Ile-Ser-OH (KICIRIQIS-OH) [Peptide 1]	100%

Source: US20100210562A1, “USE OF IL-1 RECEPTOR PEPTIDE, ALONE OR IN COMBINATION WITH D-ALA-GLN-OCTADECYL ESTER, AS A THERAPEUTIC AGENT” (priority 2007, published 2010)
